Results from patent US20220047719A1, “ENHANCING SUBCUTANEOUS INJECTION AND TARGET TISSUE ACCUMULATION OF NANOPARTICLES VIA CO-ADMINISTRATION WITH MACROPINOCYTOSIS INHIBITORY NANOPARTICLES (MINP)” (Northwestern University, priority 2020, published 2022).

Tests used:
B16F10 melanoma cells = assay: LatA inhibition of E-MC and E-MC(FA) uptake; assay type: cell-based, mouse; conditions: 0.5 μM LatA 2 h, then 30 min micelles
Experimental: FIG. 10. […] B16F10 melanoma cells were treated with 0.5 μM LatA for 2 h followed by 30 min of incubation with either non-targeted E-MC or folate receptor targeted E-MC(FA) prior to analysis by flow cytometry. Data are shown as percentage inhibition of endocytosis normalized to untreated […]. N=3, p<0.001.

RAW264.7 macrophages [1] = assay: Macropinocytosis inhibition, dextran-pHrodo uptake by flow cytometry; assay type: cell-based; conditions: 2 h inhibitor, then 30 min dye
Experimental: (§1) FIG. 2. […] (a) Cryogenic transmission electron microscopy (CryoTEM) of MiNP visually confirms retention of micellar structures. (b) MiNP with ((+) MiNP) and without ((−) MiNP) loaded LatA were characterized via small angle X-ray scattering (SAXS) and fitted with a micelle model fit using SASView. […] Cells were treated with each inhibitor for 2 h followed by 30 min of incubation with pHrodo dextran prior to analysis by flow cytometry. Data are shown as a percentile scale of endocytosis inhibition. On this scale, 0% represents standard cell uptake with no inhibitor, while 100% represents complete inhibition with no uptake of dye. N=3, p<0.001. […] N=3, p<0.001. […] Macrophages were incubated with various doses of free LatA or (+) MiNP for 4 h and assessed by flow cytometry for viability via the Zombie Aqua live/dead assay. N=3, p<0.05.
(§2) To investigate macropinocytosis inhibition by MiNP and determine whether this inhibition still permits uptake via receptor-mediated endocytosis, (+) MiNP were compared to chlorpromazine, an inhibitor of receptor-mediated endocytosis. These distinct mechanisms of endocytosis were evaluated using dextran conjugated pHrodo dye and transferrin conjugated pHrodo dye to respectively quantify effects of (+) MiNP and chlorpromazine on macropinocytosis (dextran) and receptor-mediated endocytosis (transferrin). […]

RAW264.7 macrophages [2] = assay: In vitro macrophage cytotoxicity, Zombie Aqua live/dead assay; assay type: cell-based; conditions: free drug
Experimental: as §1, §2

RAW264.7 macrophages [3] = assay: Receptor-mediated endocytosis, transferrin-pHrodo uptake by flow cytometry; assay type: cell-based; conditions: 2 h inhibitor, then 30 min dye
Experimental: as §1, §2

SMILES	inhibition of endocytosis of E-MC vs E-MC(FA) (B16F10 melanoma cells)	inhibition of dextran-pHrodo uptake (macropinocytosis) (RAW264.7 macrophages [1])	inhibition of dextran-pHrodo uptake (macropinocytosis) (RAW264.7 macrophages [1]; listed as Free LatA)	doses with significant toxicity to macrophages (RAW264.7 macrophages [2]) [µM]	inhibition of transferrin-pHrodo uptake (receptor-mediated endocytosis) (RAW264.7 macrophages [3])	inhibition of transferrin-pHrodo uptake (receptor-mediated endocytosis) (RAW264.7 macrophages [3]; listed as chlorpromazine)
C/C1=C/C(=O)O[C@@H]2C[C@@H](CC[C@H](C)/C=C\C=C\CC1)O[C@@](O)([C@@H]1CSC(=O)N1)C2 [free LatA, latrunculin A]	inhibits uptake of non-targeted E-MC more than targeted E-MC(FA)	much stronger inhibition of uptake than free chlorpromazine	significantly inhibited macropinocytosis	≥ 0.5		
CN(C)CCCN1c2ccccc2Sc2ccc(Cl)cc21 [free chlorpromazine, chlorpromazine]					significantly inhibited endocytosis	significantly inhibited
